This note sets out measurements from patent publication US20260176283A1, “IONIZABLE LIPIDS WITH LINEAR HEAD GROUPS” (Beam Therapeutics Inc., priority 2023, published 2026).

A short description of data set [1]: LNP characterization of base editor LNP preparations (DLS diameter, PDI, encapsulation efficiency). The class given is physicochemical. The method, then:
(§1) Lipid nanoparticle components are dissolved in 100% ethanol at specified lipid component molar ratios. mRNA encoding an adenine base editor and a chemically-modified sgRNA is dissolved at a mass ratio of 1:1 in 10 mM citrate, 100 mM NaCl, pH 4.0, resulting in a concentration of NA cargo of approximately 0.22 mg/mL. LNP preparations are formulated with molar ratios of either 50% Ionizable Lipid: 38.5% Cholesterol: 1.5% PEG2000-DMG: 10% DSPC or 47.5% Ionizable Lipid: 40% Cholesterol: 2.5% PEG2000-DMG: 10% DSPC both at a total lipid to NA molar ratio of 6.
(§2) LNP preparations are formed by microfluidic mixing of the lipid and NA solutions using a Precision Nanosystems NanoAssemblr Ignite Instrument, according to the manufacturer's protocol. A 3:1 ratio of aqueous to organic solvent is maintained during mixing using differential flow rates. After mixing, LNP preparations are collected, diluted in PBS (approximately 2:1 v/v), and further buffer exchange is conducted using dialysis in PBS at 4° C. for 8 to 24 hours against a 20 kDa filter. After this initial dialysis, each individual LNP preparation is characterized via dynamic light scattering (DLS) to measure size and polydispersity. pKa of a subpopulation of LNP preparations is measured via TNS assay. After dialysis, LNP preparations are sterile filtered using 0.22 micron sterile filter and stored at 4° C. for further use. In some embodiments, LNP preparations may be concentrated using 100 kDa Amicon filters per manufacturer's protocol.
DLS—LNP preparation hydrodynamic diameter and polydispersity index (PDI) is measured using high throughput dynamic light scattering (DLS) (DynaPro plate reader II, Wyatt). LNP preparations are diluted 1×PBS to an appropriate concentration and analyzed.
Concentration of NA is determined by Qubit microRNA kit (for siRNA) or HS RNA kit (for mRNA) per manufacturer's instructions. Encapsulation efficiency is determined by measuring unlysed and lysed LNPs.

The subject of data set [2] is ALAS1 target site. As to the kind of experiment: In vivo base editing with ABE mRNA and sgRNA targeting ALAS1. Set-up: species or system Balb/c mice. The following applies: for Liver Editing A->G (%): 4 days after dosing; for Quadrecept Editing A->G (%): formulation ratio 50:38.5:1.5:10, quadricep muscle. How it is done:
as §1, §2
Male Balb/C mice aged approximately 8-12 weeks are used in the experiments described herein. Each mouse is temporarily restrained, and LNP preparations are administered IV via tail vein injection. Age-matched mice are also used to administer vehicle (1×PBS) via tail vein injection as a control. Four to six days post-dose, tissues including liver, spleen, heart and muscle are collected (only liver and muscle (quardracept) are reported). Genomic DNA is isolated and fragmented and adapter-ligated using the Nextera DNA Flex Library Prep Kit (Illumina) using the 96-well plate Nextera indexing primers (Illumina), according to the manufacturer's instructions. Library size and concentration is confirmed by Fragment Analyzer (Agilent) and sent to Novogene for whole genome sequencing using an Illumina HiSeq.
For base editing, mRNA encoding an adenine base editor (ABE) and a guide RNA (sgRNA) targeting ALAS1 at 1:1 (mass ratio) are coencapsulated in LNP preparations as described herein. LNP preparations are administrated into Balb/c mice through tail vein injections at concentrations ranging from 0.05 to 3.0 mg/kg total RNA. At 4 days after dosing, mice are euthanized and liver, spleen and bone barrow are harvested. Base editing is determined by performing targeted deep sequencing analysis at the ALAS1 target site using extracted genomic DNA.

A short description of data set [3]: LNP preparation characterization (encapsulation efficiency, DLS size and polydispersity), barcoded screen LNPs. The class given is physicochemical. The settings on record: LNP 47.5% ionizable lipid: 40% cholesterol: 2.5% PEG-2000 DMG: 10% DPSC, N/P 4.5-6; for AVG PDI / AVG Z Dia (nm): DLS. The method, then:
Lipid nanoparticle components were dissolved in 100% ethanol at specified lipid component molar ratios. Nucleic acid (NA) cargo was dissolved in 10 mM citrate, 100 mM NaCl, pH 4.0, resulting in a concentration of NA cargo of approximately 0.22 mg/mL. In some embodiments, NA cargos included both a functional NA and a reporter barcode mixed at mass ratios of 1:10 to 10:1 functional NA to barcode. As described herein, a NA can be a siRNA, an anti-sense, an expressing DNA, or mRNA.
LNP preparations were prepared with 47.5% Ionizable Lipid (e.g., a compound provided herein): 40% cholesterol: 2.5% PEG-2000 DMG: 10% DPSC and an N/P ratio range of 4.5-6. LNP preparations were formed by microfluidic mixing of the lipid and NA solutions using Precision Nanosystems NanoAssemblr Spark or Benchtop series Instruments, according to the manufacturer's protocol.
A ratio of aqueous to organic solvent of approximately 2:1 or 3:1 was maintained during mixing using differential flow rates. After mixing, LNP preparations were collected, diluted in phosphate buffer saline (PBS) or Tris-buffered saline (TBS) (approximately 1:1 v/v). Further buffer exchange was conducted using dialysis in PBS or TBS at 4° C. for 4 to 24 hours against a 20 kDa filter. After this initial dialysis, each individual LNP preparation may be characterized via dynamic light scattering (DLS) to measure the size (e.g., diameter) and polydispersity. LNP preparations falling within specific diameter and polydispersity ranges were pooled, and further dialyzed against PBS or TBS at 4° C. for 1 to 4 hours against a 100 kDa dialysis cassette. After the second dialysis, LNP preparations were sterile filtered using 0.22 μm filter and stored at 4° C. for further use.

Where [4] appears, read: Table D LNPs, formulation ratio 50:38.5:1.5:10, ABE mRNA/ALAS1 sgRNA.
Where [5] appears, read: dose 3 MPK IV, formulation ratio 50:38.5:1.5:10, liver.
[6] abbreviates: Table C LNPs, formulation ratio 47.5:40:2.5:10, ABE mRNA/ALAS1 sgRNA.

Where “and” joins values, the source holds several entries; their conditions need not be identical. Equal entries are not always repeated.

Take `C=CCCCCCC(CCCCCC=C)OC(=O)CCCCC(=O)OCC(COC(=O)CCCCC(=O)OC(CCCCCC=C)CCCCCC=C)COC(=O)CCCN1CCCC1` [Compound (11), 1-[2-({[6-Oxo-6-(pentadeca-1,14-dien-8-yloxy)hexanoyl]oxy}methyl)-3-{[4-(pyrrolidin-1-yl)butanoyl]oxy}propyl]6-pentadeca-1,14-dien-8-yl hexanedioate]: in data set [1] (setting [4]), the “Diameter (nm)” value came to 83.2 nm, the “EE (%)” value came out at 74.33% and the “PDI (%)” value amounted to 18.7%. In addition, the “Liver Editing A->G (%)” value in data set [2] (setting [5]) was found to be 17.19%. In addition, in data set [2] (dose 3 MPK IV), the “Quadrecept Editing A->G (%)” value came out at 0.11%.

Consider `CC/C=C\CCCC(CCC/C=C\CC)OC(=O)CCCCCC(=O)OCC(COC(=O)CCCCCC(=O)OC(CCC/C=C\CC)CCC/C=C\CC)COC(=O)NCCN1CCCC1` [Compound (28), 1-{2-[({7-oxo-7-[(3Z,12Z)-pentadeca-3,12-dien-8-yloxy]heptanoyl}oxy)methyl]-3-({[2-(pyrrolidin-1-yl)ethyl]carbamoyl}oxy)propyl}7-(3Z,12Z)-pentadeca-3,12-dien-8-ylheptanedioate], for which, in data set [1] (setting [6]), the “Diameter (nm)” value is reported as 71.15 nm, the “EE (%)” value worked out at 98.71% and the “PDI (%)” value is 11.8%. Also, the “Liver Editing A->G (%)” value in data set [2] (dose 0.05 MPK IV, formulation ratio 47.5:40:2.5:10, liver) was 0.65%.

Regarding `C=CCCCC(CCCC=C)COC(=O)CCCCCCC(=O)OCC(COC(=O)CCCCCCC(=O)OCC(CCCC=C)CCCC=C)COC(=O)CCCN1CCCC1` [Compound (15), 1-(2-1[(8-oxo-8-{[2-(pent-4-en-1-yl)hept-6-en-1-yl]oxy}octanoyl)oxy]methyl}-3-{[4-(pyrrolidin-1-yl)butanoyl]oxy}propyl) 8-[2-(pent-4-en-1-yl)hept-6-en-1-yl] octanedioate], in data set [1] (setting [4]), the “Diameter (nm)” value worked out at 96.6 nm, the “EE (%)” value turned out to be 94.81% and the “PDI (%)” value was 11.6%. Moreover, in data set [2] (dose 3 MPK IV), the “Quadrecept Editing A->G (%)” value is on record as 4.05%.

For `O=C(CCCCC(=O)OC(CCCCCC(F)(F)F)CCCCCC(F)(F)F)OCC(COC(=O)CCCCC(=O)OC(CCCCCC(F)(F)F)CCCCCC(F)(F)F)COC(=O)CCCN1CCCC1` [Compound (20), 1-(1,1,1,13,13,13-Hexafluorotridecan-7-yl)6-{2-[({6-[(1,1,1,13,13,13-hexafluorotridecan-7-yl)oxy]-6-oxohexanoyl}oxy)methyl]-3-{[4-(pyrrolidin-1-yl)butanoyl]oxy}propyl} hexanedioate], in data set [1] (setting [6]), the “Diameter (nm)” value was determined as 153.73 nm, the “EE (%)” value is given as 25% and the “PDI (%)” value is listed as 8.2%.

Consider `CC/C=C\CCCC(CCC/C=C\CC)OC(=O)CCCCCCC(=O)OCC(COC(=O)CCCCCCC(=O)OC(CCC/C=C\CC)CCC/C=C\CC)COC(=O)CCCN1CCCC1` [Compound (13), 1-{2-[({8-Oxo-8-[(3Z,12Z)-pentadeca-3,12-dien-8-yloxy]octanoyl}oxy)methyl]-3-{[4-(pyrrolidin-1-yl)butanoyl]oxy}propyl} 8-(3Z,12Z)-pentadeca-3,12-dien-8-yl octanedioate], for which, in data set [1] (setting [4]), the “Diameter (nm)” value worked out at 79.7 nm, the “EE (%)” value came out at 96.75% and the “PDI (%)” value worked out at 27.9%. Moreover, the “Quadrecept Editing A->G (%)” value in data set [2] (dose 3 MPK IV) is on record as 0.37%.

In the case of `C=CCCCC(CCCC=C)COC(=O)CCCCC(=O)OCC(COC(=O)CCCCC(=O)OCC(CCCC=C)CCCC=C)COC(=O)CCCN1CCCC1` [Compound (19), 1-(2-{[(6-Oxo-6-{[2-(pent-4-en-1-yl)hept-6-en-1-yl]oxy}hexanoyl)oxy]methyl}-3-{[4-(pyrrolidin-1-yl)butanoyl]oxy}propyl) 6-[2-(pent-4-en-1-yl)hept-6-en-1-yl] hexanedioate], in data set [3], the “AVG EE(%)” value is 98.2%, the “AVG PDI” value is listed as 0.08 and the “AVG Z Dia (nm)” value stood at 130.75 nm. Also, in data set [1] (setting [6]), the “Diameter (nm)” value is reported as 123 nm, the “EE (%)” value is recorded as 57.3% and the “PDI (%)” value came to 9.9%.

Take `C=CCCCCCCC(CCCCCCC=C)OC(=O)CCCCCC(=O)OCC(COC(=O)CCCCCC(=O)OC(CCCCCCC=C)CCCCCCC=C)COC(=O)CCCN1CCCC1` [Compound (4), 1-Heptadeca-1,16-dien-9-yl-7-[2-({[7-(heptadeca-1,16-dien-9-yloxy)-7-oxoheptanoyl]oxy}methyl)-3-{[4-(pyrrolidin-1-yl)butanoyl]oxy}propyl] heptanedioate]: in data set [1] (setting [4]), the “Diameter (nm)” value stood at 72.1 nm, the “EE (%)” value was 99.03% and the “PDI (%)” value was 11%. Further, the “Liver Editing A->G (%)” value in data set [2] (setting [5]) came out at 64.7%. Besides, the “Quadrecept Editing A->G (%)” value in data set [2] (dose 3 MPK IV) is on record as 4.16%.

Turning to `C=CCCCCCC(CCCCCC=C)OC(=O)CCCCCC(=O)OCCCC(CCCOC(=O)CCCCCC(=O)OC(CCCCCC=C)CCCCCC=C)OC(=O)CCCN1CCCC1` [Compound (22), O1-[7-[7-(1-hept-6-enyloct-7-enoxy)-7-oxo-heptanoyl]oxy-4-(4-pyrrolidin-1-ylbutanoyloxy)heptyl] O7-(1-hept-6-enyloct-7-enyl) heptanedioate], in data set [3], the “AVG EE(%)” value is recorded as 88.1%, the “AVG PDI” value was determined as 0.07 and the “AVG Z Dia (nm)” value is given as 90.80 nm. For the same compound, in data set [1] (setting [6]), the “Diameter (nm)” value is 90.8 nm, the “EE (%)” value turned out to be 88.09% and the “PDI (%)” value is reported as 6.8%.

As for `CC/C=C\CCCC(CCC/C=C\CC)COC(=O)CCCCC(=O)OCC(COC(=O)CCCCC(=O)OCC(CCC/C=C\CC)CCC/C=C\CC)COC(=O)CCCN1CCCC1` [Compound (24), 1-(6Z)-2-[(4Z)-Hept-4-en-1-yl]non-6-en-1-yl6-(2-{[(6-{[(6Z)-2-[(4Z)-hept-4-en-1-yl]non-6-en-1-yl]oxy}-6-oxohexanoyl)oxy]methyl}-3-{[4-(pyrrolidin-1-yl)butanoyl]oxy}propyl) hexanedioate], in data set [3], the “AVG EE(%)” value is 90.2%, the “AVG PDI” value is recorded as 0.13 and the “AVG Z Dia (nm)” value turned out to be 117.63 nm.

On to `CC/C=C\CCCC(CCC/C=C\CC)OC(=O)CCCCCC(=O)OCC(COC(=O)CCCCCC(=O)OC(CCC/C=C\CC)CCC/C=C\CC)COC(=O)CCCN1CCCC1` [Compound (14), 1-{2-[({7-Oxo-7-[(3Z,12Z)-pentadeca-3,12-dien-8-yloxy]heptanoyl}oxy)methyl]-3-{[4-(pyrrolidin-1-yl)butanoyl]oxy}propyl} 7-(3Z,12Z)-pentadeca-3,12-dien-8-yl heptanedioate], for which, in data set [1] (setting [4]), the “Diameter (nm)” value was 74.2 nm and 87.2 nm and 88.8 nm and 111.4 nm and 90.2 nm and 83.6 nm; the “EE (%)” value was 98.94% and 98.27% and 98.68% and 98.67% and 97.86% and 97.95%; the “PDI (%)” value was 11.6% and 9.6% and 11.5% and 8% and 11.4% and 10.2%.
